# Reference: patent publication US9304136B2, “Means and methods for assessing increased peroxisomal proliferation” (BASF SE, priority 2008, dated 2016)
# Legend:
# female rats = experiment: Plasma metabolite profiling after 28-day oral dosing, female rats (markers for peroxisomal proliferators); assay type: in vivo, rat; details: once daily gavage; for 16-Methylheptadecanoic acid, change in plasma relative to control / 17-Methyloctadecanoic acid, change in plasma relative to control / Cytosine, change in plasma relative to control / Phosphatidylcholine (C18:0/C22:6), change in plasma relative to control: marker direction down; for Coenzyme Q9, change in plasma relative to control / Gamma-Linolenic acid (C18:cis[6,9,12]3), change in plasma relative to control / Glycerol, lipid fraction, change in plasma relative to control / Palmitic acid (C16:0), change in plasma relative to control / Pantothenic acid, change in plasma relative to control / Threonic acid, change in plasma relative to control: marker direction up
# Protocol: (§1) A group of each 5 male and female rats was dosed once daily with the indicated compounds (see tables below) at 10 and 100 mg/kg body weight per gavage over 28 days. Additional groups of each 5 male and female animals served as controls. Before starting the treatment period, animals, which were 62-64 days old when supplied, were acclimatized to the housing and environmental conditions for 7 days. All animals of the animal population were kept under the same constant temperature (20-24±3° C.) and the same constant humidity (30-70%). Each animal of the animal population was kept in a separate cage. The animals of the animal population are fed ad libitum. The food to be used was be essentially free of chemical or microbial contaminants. Drinking water was also offered ad libitum. Accordingly, the water was be free of chemical and microbial contaminants as laid down in the European Drinking Water Directive 98/83/EG. The illumination period was 12 hours light followed by 12 hours darkness (12 hours light, from 6:00 to 18:00, and 12 hours darkness, from 18:00 to 6:00).
# (§2) In the morning of day 7, 14, and 28, blood was taken from the retroorbital venous plexus from fasted anaesthetized animals. From each animal, 1 ml of blood was collected with EDTA as anticoagulant. The samples were be centrifuged for generation of plasma. All plasma samples were covered with a N2 atmosphere and then stored at −80° C. until analysis.
# (§3) For mass spectrometry-based metabolite profiling analyses plasma samples were extracted and a polar and a non-polar fraction was obtained. For GC-MS analysis, the non-polar fraction was […] with methanol under acidic conditions to yield the fatty acid methyl esters. Both fractions were further derivatised with O-methyl-hydroxyamine hydrochloride and pyridine to convert Oxo-groups to O-metyloximes and subsequently with a silyating agent […]. In LC-MS analysis, both fractions were reconstituted in appropriate solvent mixtures. HPLC was performed by gradient elution on reversed phase separation columns. For mass spectrometric detection metanomics proprietary technology was applied which allows target and high sensitivity MRM (Multiple Reaction Monitoring) profiling in parallel to a full screen analysis.
# (§4) Following comprehensive analytical validation steps, the data for each analyte were normalized against data from pool samples. These samples were run in parallel through the whole process to account for process variability. The significance of treatment group values specific for sex, dose group and metabolite was determined by comparing means of the treated groups to the means of the respective untreated control groups using Student's t-test. Normalized treatment group values and their significance were fed into a database for further statistics and data mining processes.
# (§5) The changes of the group of plasma metabolites being indicative for increased peroxisomal proliferation after treatment of the rats are shown in the following tables: […]
# male rats = experiment: Plasma metabolite profiling after 28-day oral dosing, male rats (markers for peroxisomal proliferators); assay type: in vivo, rat; details: once daily gavage; for 16-Methylheptadecanoic acid, change in plasma relative to control / 17-Methyloctadecanoic acid, change in plasma relative to control / Coenzyme Q10, change in plasma relative to control / Proline, change in plasma relative to control / Threonine, change in plasma relative to control / Tyrosine, change in plasma relative to control / trans-4-Hydroxyproline, change in plasma relative to control: marker direction down; for Eicosatrienoic acid (C20:3), change in plasma relative to control: marker direction up
# Protocol: as §1, §2, §3, §4, §5
compound,measurement,setting,value
CCCCOC(=O)c1ccccc1C(=O)OCc1ccccc1 [Benzylbutyl Phthalate],"16-Methylheptadecanoic acid, change in plasma relative to control",female rats; fh7 (day 7),0.55
same,"17-Methyloctadecanoic acid, change in plasma relative to control",female rats; fh7 (day 7),0.78
same,"Cytosine, change in plasma relative to control",female rats; fh7 (day 7),0.77
same,"Phosphatidylcholine (C18:0/C22:6), change in plasma relative to control",female rats; fh7 (day 7),0.59
same,"Coenzyme Q9, change in plasma relative to control",female rats; fh7 (day 7),1.44
same,"Gamma-Linolenic acid (C18:cis[6,9,12]3), change in plasma relative to control",female rats; fh7 (day 7),1.98
same,"Glycerol, lipid fraction, change in plasma relative to control",female rats; fh7 (day 7),1.15
same,"Palmitic acid (C16:0), change in plasma relative to control",female rats; fh7 (day 7),1.48
same,"Pantothenic acid, change in plasma relative to control",female rats; fh7 (day 7),1.82
same,"Threonic acid, change in plasma relative to control",female rats; fh7 (day 7),1.20
same,"16-Methylheptadecanoic acid, change in plasma relative to control",female rats; fh14 (day 14),0.66
same,"17-Methyloctadecanoic acid, change in plasma relative to control",female rats; fh14 (day 14),0.64
same,"Cytosine, change in plasma relative to control",female rats; fh14 (day 14),0.63
same,"Phosphatidylcholine (C18:0/C22:6), change in plasma relative to control",female rats; fh14 (day 14),0.86
same,"Coenzyme Q9, change in plasma relative to control",female rats; fh14 (day 14),1.50
same,"Gamma-Linolenic acid (C18:cis[6,9,12]3), change in plasma relative to control",female rats; fh14 (day 14),1.64
same,"Glycerol, lipid fraction, change in plasma relative to control",female rats; fh14 (day 14),1.48
same,"Palmitic acid (C16:0), change in plasma relative to control",female rats; fh14 (day 14),1.79
same,"Pantothenic acid, change in plasma relative to control",female rats; fh14 (day 14),2.06
same,"Threonic acid, change in plasma relative to control",female rats; fh14 (day 14),1.53
same,"16-Methylheptadecanoic acid, change in plasma relative to control",female rats; fh28 (day 28),0.85
same,"17-Methyloctadecanoic acid, change in plasma relative to control",female rats; fh28 (day 28),0.69
same,"Cytosine, change in plasma relative to control",female rats; fh28 (day 28),0.79
same,"Phosphatidylcholine (C18:0/C22:6), change in plasma relative to control",female rats; fh28 (day 28),0.81
same,"Coenzyme Q9, change in plasma relative to control",female rats; fh28 (day 28),1.78
same,"Gamma-Linolenic acid (C18:cis[6,9,12]3), change in plasma relative to control",female rats; fh28 (day 28),2.08
same,"Glycerol, lipid fraction, change in plasma relative to control",female rats; fh28 (day 28),2.43
same,"Palmitic acid (C16:0), change in plasma relative to control",female rats; fh28 (day 28),1.94
same,"Pantothenic acid, change in plasma relative to control",female rats; fh28 (day 28),2.42
same,"Threonic acid, change in plasma relative to control",female rats; fh28 (day 28),1.74
same,"16-Methylheptadecanoic acid, change in plasma relative to control",male rats; mh7 (day 7),0.24
same,"17-Methyloctadecanoic acid, change in plasma relative to control",male rats; mh7 (day 7),0.37
same,"Coenzyme Q10, change in plasma relative to control",male rats; mh7 (day 7),0.51
same,"Proline, change in plasma relative to control",male rats; mh7 (day 7),0.74
same,"Threonine, change in plasma relative to control",male rats; mh7 (day 7),0.55
same,"Tyrosine, change in plasma relative to control",male rats; mh7 (day 7),0.74
same,"trans-4-Hydroxyproline, change in plasma relative to control",male rats; mh7 (day 7),0.69
same,"Eicosatrienoic acid (C20:3), change in plasma relative to control",male rats; mh7 (day 7),2.56
same,"16-Methylheptadecanoic acid, change in plasma relative to control",male rats; mh14 (day 14),0.31
same,"17-Methyloctadecanoic acid, change in plasma relative to control",male rats; mh14 (day 14),0.28
same,"Coenzyme Q10, change in plasma relative to control",male rats; mh14 (day 14),0.34
same,"Proline, change in plasma relative to control",male rats; mh14 (day 14),0.85
same,"Threonine, change in plasma relative to control",male rats; mh14 (day 14),0.69
same,"Tyrosine, change in plasma relative to control",male rats; mh14 (day 14),0.83
same,"trans-4-Hydroxyproline, change in plasma relative to control",male rats; mh14 (day 14),0.65
same,"Eicosatrienoic acid (C20:3), change in plasma relative to control",male rats; mh14 (day 14),3.12
same,"16-Methylheptadecanoic acid, change in plasma relative to control",male rats; mh28 (day 28),0.20
same,"17-Methyloctadecanoic acid, change in plasma relative to control",male rats; mh28 (day 28),0.30
same,"Coenzyme Q10, change in plasma relative to control",male rats; mh28 (day 28),0.27
same,"Proline, change in plasma relative to control",male rats; mh28 (day 28),0.84
same,"Threonine, change in plasma relative to control",male rats; mh28 (day 28),0.81
same,"Tyrosine, change in plasma relative to control",male rats; mh28 (day 28),0.97
same,"trans-4-Hydroxyproline, change in plasma relative to control",male rats; mh28 (day 28),0.83
same,"Eicosatrienoic acid (C20:3), change in plasma relative to control",male rats; mh28 (day 28),4.12
CCOC(=O)C(C)(C)Oc1ccc(Cl)cc1 [Clofibrate],"16-Methylheptadecanoic acid, change in plasma relative to control",female rats; fh7 (day 7),0.55
same,"17-Methyloctadecanoic acid, change in plasma relative to control",female rats; fh7 (day 7),0.48
same,"Cytosine, change in plasma relative to control",female rats; fh7 (day 7),0.87
same,"Phosphatidylcholine (C18:0/C22:6), change in plasma relative to control",female rats; fh7 (day 7),0.88
same,"Coenzyme Q9, change in plasma relative to control",female rats; fh7 (day 7),1.86
same,"Gamma-Linolenic acid (C18:cis[6,9,12]3), change in plasma relative to control",female rats; fh7 (day 7),2.04
same,"Glycerol, lipid fraction, change in plasma relative to control",female rats; fh7 (day 7),1.39
same,"Palmitic acid (C16:0), change in plasma relative to control",female rats; fh7 (day 7),1.05
same,"Pantothenic acid, change in plasma relative to control",female rats; fh7 (day 7),1.07
same,"Threonic acid, change in plasma relative to control",female rats; fh7 (day 7),1.23
same,"16-Methylheptadecanoic acid, change in plasma relative to control",female rats; fh14 (day 14),0.75
same,"17-Methyloctadecanoic acid, change in plasma relative to control",female rats; fh14 (day 14),0.57
same,"Cytosine, change in plasma relative to control",female rats; fh14 (day 14),0.86
same,"Phosphatidylcholine (C18:0/C22:6), change in plasma relative to control",female rats; fh14 (day 14),0.71
same,"Coenzyme Q9, change in plasma relative to control",female rats; fh14 (day 14),1.64
same,"Gamma-Linolenic acid (C18:cis[6,9,12]3), change in plasma relative to control",female rats; fh14 (day 14),1.88
same,"Glycerol, lipid fraction, change in plasma relative to control",female rats; fh14 (day 14),1.64
same,"Palmitic acid (C16:0), change in plasma relative to control",female rats; fh14 (day 14),1.38
same,"Pantothenic acid, change in plasma relative to control",female rats; fh14 (day 14),1.75
same,"Threonic acid, change in plasma relative to control",female rats; fh14 (day 14),1.30
same,"16-Methylheptadecanoic acid, change in plasma relative to control",female rats; fh28 (day 28),0.75
same,"17-Methyloctadecanoic acid, change in plasma relative to control",female rats; fh28 (day 28),0.77
same,"Cytosine, change in plasma relative to control",female rats; fh28 (day 28),1.00
same,"Phosphatidylcholine (C18:0/C22:6), change in plasma relative to control",female rats; fh28 (day 28),0.53
same,"Coenzyme Q9, change in plasma relative to control",female rats; fh28 (day 28),2.55
same,"Gamma-Linolenic acid (C18:cis[6,9,12]3), change in plasma relative to control",female rats; fh28 (day 28),7.00
same,"Glycerol, lipid fraction, change in plasma relative to control",female rats; fh28 (day 28),4.99
same,"Palmitic acid (C16:0), change in plasma relative to control",female rats; fh28 (day 28),2.31
same,"Pantothenic acid, change in plasma relative to control",female rats; fh28 (day 28),1.22
same,"Threonic acid, change in plasma relative to control",female rats; fh28 (day 28),1.30
same,"16-Methylheptadecanoic acid, change in plasma relative to control",male rats; mh7 (day 7),0.24
same,"17-Methyloctadecanoic acid, change in plasma relative to control",male rats; mh7 (day 7),0.35
same,"Coenzyme Q10, change in plasma relative to control",male rats; mh7 (day 7),0.45
same,"Proline, change in plasma relative to control",male rats; mh7 (day 7),0.78
same,"Threonine, change in plasma relative to control",male rats; mh7 (day 7),0.68
same,"Tyrosine, change in plasma relative to control",male rats; mh7 (day 7),0.87
same,"trans-4-Hydroxyproline, change in plasma relative to control",male rats; mh7 (day 7),0.77
same,"Eicosatrienoic acid (C20:3), change in plasma relative to control",male rats; mh7 (day 7),1.65
same,"16-Methylheptadecanoic acid, change in plasma relative to control",male rats; mh14 (day 14),0.21
same,"17-Methyloctadecanoic acid, change in plasma relative to control",male rats; mh14 (day 14),0.27
same,"Coenzyme Q10, change in plasma relative to control",male rats; mh14 (day 14),0.60
same,"Proline, change in plasma relative to control",male rats; mh14 (day 14),0.80
same,"Threonine, change in plasma relative to control",male rats; mh14 (day 14),1.02
same,"Tyrosine, change in plasma relative to control",male rats; mh14 (day 14),0.95
same,"trans-4-Hydroxyproline, change in plasma relative to control",male rats; mh14 (day 14),0.64
same,"Eicosatrienoic acid (C20:3), change in plasma relative to control",male rats; mh14 (day 14),1.72
same,"16-Methylheptadecanoic acid, change in plasma relative to control",male rats; mh28 (day 28),0.28
same,"17-Methyloctadecanoic acid, change in plasma relative to control",male rats; mh28 (day 28),0.37
same,"Coenzyme Q10, change in plasma relative to control",male rats; mh28 (day 28),0.47
same,"Proline, change in plasma relative to control",male rats; mh28 (day 28),0.87
same,"Threonine, change in plasma relative to control",male rats; mh28 (day 28),1.06
same,"Tyrosine, change in plasma relative to control",male rats; mh28 (day 28),1.02
same,"trans-4-Hydroxyproline, change in plasma relative to control",male rats; mh28 (day 28),0.57
same,"Eicosatrienoic acid (C20:3), change in plasma relative to control",male rats; mh28 (day 28),2.54
